From PubChem BioAssay AID1963826 (Molecular Pharmacology Branch, DTP, NCI, 2024)

Tested on: 926638-142-R-J1-PDC complex spheroid viability
Test: Anticancer human tumor 926638-142-R-J1-PDC patient-derived endometrial carcinoma cell line growth inhibition [POLQ]
Settings: for IC50: curve of first compound; for viability, T/C: stronger effect = lower value
Outline: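 Patient-derived tumour cells were co-cultured with HUVEC and mesenchymal stem cells as multicellular spheroids at 37 °C. They were treated with POLQ inhibitors (novobiocin, ART-558, RP6685) alone or combined with other agents. Top concentrations were at or near clinical Cmax (otherwise 10 microM; SN-38 at 1 microM), decreasing in half-log steps.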

[1] = second compound 0.0316 µM, first compound 0.0316 µM
[2] = second compound 0.0316 µM, first compound 0.1 µM
[3] = second compound 0.0316 µM, first compound 0.316 µM
[4] = second compound 0.0316 µM, first compound 1 µM
[5] = second compound 0.0316 µM, first compound 3.16 µM
[6] = second compound 0.0316 µM, first compound 10 µM
[7] = second compound 0.1 µM, first compound 0.0316 µM
[8] = second compound 0.1 µM, first compound 0.1 µM
[9] = second compound 0.1 µM, first compound 0.316 µM
[10] = second compound 0.1 µM, first compound 1 µM
[11] = second compound 0.1 µM, first compound 3.16 µM
[12] = second compound 0.1 µM, first compound 10 µM
[13] = second compound 0.316 µM, first compound 0.0316 µM
[14] = second compound 0.316 µM, first compound 0.1 µM
[15] = second compound 0.316 µM, first compound 0.316 µM
[16] = second compound 0.316 µM, first compound 1 µM
[17] = second compound 0.316 µM, first compound 3.16 µM
[18] = second compound 0.316 µM, first compound 10 µM
[19] = second compound 1 µM, first compound 0.0316 µM
[20] = second compound 1 µM, first compound 0.1 µM
[21] = second compound 1 µM, first compound 0.316 µM
[22] = second compound 1 µM, first compound 1 µM
[23] = second compound 1 µM, first compound 3.16 µM
[24] = second compound 1 µM, first compound 10 µM
[25] = second compound 3.16 µM, first compound 0.0316 µM
[26] = second compound 3.16 µM, first compound 0.1 µM
[27] = second compound 3.16 µM, first compound 0.316 µM
[28] = second compound 3.16 µM, first compound 1 µM
[29] = second compound 3.16 µM, first compound 3.16 µM
[30] = second compound 3.16 µM, first compound 10 µM
[31] = second compound 10 µM, first compound 0.0316 µM
[32] = second compound 10 µM, first compound 0.1 µM
[33] = second compound 10 µM, first compound 0.316 µM
[34] = second compound 10 µM, first compound 1 µM
[35] = second compound 10 µM, first compound 3.16 µM
[36] = second compound 10 µM, first compound 10 µM
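Also: spheroids exposed to drugs for one week before readout.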
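For viability, T/C in this document: percent viability relative to DMSO vehicle control wells set as 100%.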

With `COc1ccc([C@@H](O)c2cc(-c3ncnc4cc(N5CCOCC5)ccc34)c(F)cc2Cl)nn1` + COC1C(OC(N)=O)C(O)C(Oc2ccc3c(O)c(NC(=O)c4ccc(O)c(CC=C(C)C)c4)c(=O)oc3c2C)OC1(C)C as the compound, how does the IC50 (second compound 0.0316 µM) read?
The IC50 was 434 nM.

And the IC50 (second compound 0.1 µM)?
The IC50 was 454 nM.

What about the IC50 (second compound 0.316 µM) of the same compound?
The IC50 was 535 nM.

What about the IC50 (second compound 1 µM) of the same compound?
Its IC50 is 443 nM.

What about the IC50 (second compound 3.16 µM) of the same compound?
Its IC50 is 634 nM.

And the IC50 (second compound 10 µM)?
The IC50 was 468 nM.

What about the viability, T/C [1] of the same compound?
The viability, T/C was 106%.

And the viability, T/C [2]?
Its viability, T/C is 77.5%.

And the viability, T/C [3]?
Its viability, T/C is 64%.

What about the viability, T/C [4] of the same compound?
Its viability, T/C is 28.1%.

What about the viability, T/C [5] of the same compound?
The viability, T/C was 16.5%.

And the viability, T/C [6]?
The viability, T/C was 8.85%.

What about the viability, T/C [7] of the same compound?
Its viability, T/C is 109%.

What about the viability, T/C [8] of the same compound?
Its viability, T/C is 89%.

And the viability, T/C [9]?
The viability, T/C was 64%.

What about the viability, T/C [10] of the same compound?
Its viability, T/C is 24.4%.

And the viability, T/C [11]?
The viability, T/C was 12.6%.

And the viability, T/C [12]?
The viability, T/C was 7.89%.

What about the viability, T/C [13] of the same compound?
The viability, T/C was 106%.

And the viability, T/C [14]?
The viability, T/C was 92.4%.

What about the viability, T/C [15] of the same compound?
Its viability, T/C is 64.9%.

And the viability, T/C [16]?
Its viability, T/C is 31.9%.

And the viability, T/C [17]?
Its viability, T/C is 17.5%.

And the viability, T/C [18]?
The viability, T/C was 9.34%.

What about the viability, T/C [19] of the same compound?
The viability, T/C was 84.7%.

What about the viability, T/C [20] of the same compound?
The viability, T/C was 82.3%.

What about the viability, T/C [21] of the same compound?
The viability, T/C was 57.7%.

What about the viability, T/C [22] of the same compound?
The viability, T/C was 29.1%.

What about the viability, T/C [23] of the same compound?
Its viability, T/C is 10.7%.

What about the viability, T/C [24] of the same compound?
The viability, T/C was 9.06%.

What about the viability, T/C [25] of the same compound?
The viability, T/C was 96.4%.

What about the viability, T/C [26] of the same compound?
Its viability, T/C is 102%.

What about the viability, T/C [27] of the same compound?
The viability, T/C was 80.4%.

What about the viability, T/C [28] of the same compound?
Its viability, T/C is 29.8%.

And the viability, T/C [29]?
The viability, T/C was 11.9%.

What about the viability, T/C [30] of the same compound?
Its viability, T/C is 7.51%.

What about the viability, T/C [31] of the same compound?
Its viability, T/C is 91.6%.

And the viability, T/C [32]?
Its viability, T/C is 88.9%.

What about the viability, T/C [33] of the same compound?
Its viability, T/C is 57.8%.

And the viability, T/C [34]?
The viability, T/C was 30.9%.

And the viability, T/C [35]?
The viability, T/C was 14%.

And the viability, T/C [36]?
Its viability, T/C is 7.25%.

Which results are given for `O=C(c1cc(Cc2n[nH]c(=O)c3ccccc23)ccc1F)N1CCN(C(=O)C2CC2)CC1` + COC1C(OC(N)=O)C(O)C(Oc2ccc3c(O)c(NC(=O)c4ccc(O)c(CC=C(C)C)c4)c(=O)oc3c2C)OC1(C)C?
IC50 (second compound 0.0316 µM): > 10000 nM; IC50 (second compound 0.1 µM): > 10000 nM; IC50 (second compound 0.316 µM): > 10000 nM; IC50 (second compound 1 µM): > 10000 nM; IC50 (second compound 3.16 µM): > 10000 nM; IC50 (second compound 10 µM): > 10000 nM; viability, T/C [1]: 86%; viability, T/C [2]: 115%; viability, T/C [3]: 95.5%; viability, T/C [4]: 115%; viability, T/C [5]: 84.3%; viability, T/C [6]: 89.7%; viability, T/C [7]: 92.3%; viability, T/C [8]: 95.5%; viability, T/C [9]: 108%; viability, T/C [10]: 95.6%; viability, T/C [11]: 89.3%; viability, T/C [12]: 76.8%; viability, T/C [13]: 92.3%; viability, T/C [14]: 95.5%; viability, T/C [15]: 101%; viability, T/C [16]: 98.1%; viability, T/C [17]: 80.3%; viability, T/C [18]: 80.1%; viability, T/C [19]: 117%; viability, T/C [20]: 91.1%; viability, T/C [21]: 110%; viability, T/C [22]: 97.5%; viability, T/C [23]: 80.7%; viability, T/C [24]: 89.3%; viability, T/C [25]: 98.2%; viability, T/C [26]: 102%; viability, T/C [27]: 89.4%; viability, T/C [28]: 111%; viability, T/C [29]: 99.6%; viability, T/C [30]: 85.7%; viability, T/C [31]: 95.5%; viability, T/C [32]: 89.3%; viability, T/C [33]: 92.2%; viability, T/C [34]: 116%; viability, T/C [35]: 83.1%; viability, T/C [36]: 96%
